# Laboratory results reported in PMC5650142, “GPR40 partial agonists and AgoPAMs: Differentiating effects on glucose and hormonal secretions in the rodent” (PLoS ONE, 2017).
# Where “and” joins values, the source holds several entries; their conditions need not be identical. Identical values can stand only once.
# Tests used:
# GK rats [1] = test: GK rat chronic efficacy (28 days: glucose, food intake, body weight, GLP-1, GIP, PYY, insulin, glucagon); assay type: in vivo; conditions: 30 mpk; for Fasted glucose on day 28 (Fig 3B): day 28, fasted, individual animals
# Procedure: At the start of the study, fed (ambient) blood glucose was measured via glucometer at 1 h post lights on, and animals were selected and sorted into treatment groups based on ambient glucose (n = 10/ GK group, n = 6 WKY control). Blood for baseline incretin measurements was collected in the PM via tail vein. Rats were dosed via oral gavage (PO) at a volume of 5 ml/kg daily at approximately 12:30 PM with either vehicle (0.5% methylcellulose), AP1 at 30 mg/kg, or AP3 at 30 mg/kg. MK-8666, a GPR40 partial agonist synthesized at Merck & Co., Inc., Kenilworth, NJ USA [13], at 30 mg/kg was administered in feed (Research Diets, New Brunswick, NJ) and provided ad lib. All compounds were administered to achieve maximal efficacious exposures determined in acute efficacy studies similar to those acute studies described above. In brief, partial agonists and AgoPAMs were titrated in the acute GK rat experiment described above and the exposure associated with maximal efficacy in glucose lowering was noted. Partial agonists and AgoPAMs were then dosed to maintain those exposures up to 24h post dose. […] Rats from this group and the WKY controls were administered vehicle PO when the vehicle, AP1, and AP3 groups were treated. Fed blood glucose, food intake, and body weights were determined on days 10, 17, 23, and 28 of study at 2 h post lights on. Immediately after these measures were taken on days 10, 17, 23, and 28, food was removed. After 5h of fasting, animals were dosed with vehicle or compound and allowed to rest for an additional hour. Glucose, GLP-1, GIP, and PYY were measured after 6h of fasting at 1 hr post dose. Fed blood glucose is described by animals having had ad libidum access to feed up till the time of sampling and occurred at 2h post-lights on where rats were nearing the end of their nocturnal feeding cycle. Fasted blood glucose is described by blood glucose sampled after 6h of fasting where food was removed at 2h post lights on. Please note that the fasted sample was taken 1h post oral dosing. On day 10, blood was collected from the tail vein (20 μl) after morning glucose measures and after 6 hour fast from a subset of n = 3 rats per treatment group to determine the fed and fasted exposure of the compounds in circulation. The blood was stored at 4°C in 0.1 M sodium citrate for subsequent analysis of drug exposure.
# Blood for insulin, glucagon, GLP-1, GIP, and PYY measurements was collected into K2EDTA Microtainer tubes (BD, Franklin Lakes, NJ) pre-treated with DPP4 inhibitor (Millipore, Billerica, MA) and cOmplete™ Protease Inhibitor Cocktail Tablets (Roche Diagnostics, Indianapolis, IN). Tubes were centrifuged for 10 minutes at 5000 RPM, and plasma was aliquotted for analysis. Plasma insulin levels were measured via EIA (Mesoscale Discovery ELISA Kit, Gaithersburg MD). Rat plasma total GLP-1 was measured using Total GLP-1 (ver.2) Assay Kit (Cat#: K150JVC). The measurement of active GLP-1 was carried out in a similar manner as that described for total GLP-1 assay with the exception that MSD Active GLP-1 (ver. 2) assay kit (Cat# K150JWC) was used. Rat plasma glucagon was measured using an in-house glucagon assay developed as a MSD format sandwich immunoassay (Merck & Co., Inc., MRL, Kenilworth, NJ USA). The antibody specificity was cross validated via mass- spec using procedures described in Lee et al. Briefly, MSD Streptavidin Gold plates were coated with 2 μg/ml biotin mouse monoclonal antibody generated to glucagon. Test samples were added to the plates and a separate Sulfo- tagged monoclonal antibody was used to detect the captured glucagon protein (2 μg/ml). The ELISA was carried out in the standard reagents in the MSD format. The plate was read on the SECTOR Imager 6000 Reader. Metabolic hormones GIP (Gastric Inhibitory Polypeptide) and PYY (Peptide YY) were measured in rat plasma using the Rat Metabolic Magnetic Bead Panel (EMD Millipore, Billerica, MA). The assay was performed according to manufacturer protocol. […]
# GK rats [2] = test: Endogenous glucose production in vivo (2H/13C dual tracer); parameters: species or system rat; conditions: GK rats, 30 mpk, individual animal values (data for Fig 8); 30 mg/kg;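 for Glucose production, EGP Total: micromoles per kg body weight per minute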;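 for Glucose production, Glycerol: absolute flux in micromoles per kg per minute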;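 for Glucose production, Glycogen: absolute flux in micromoles per kg per minute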;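 for Glucose production, TCA: absolute flux in micromoles per kg per minute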
# Procedure: To evaluate the effects of the GPR40 partial and AgoPAM compounds on EGP in vivo, a 2H/13C dual tracer approach was used to calculate EGP and its contributing sources. Following the chronic treatments described above, 0.9% NaCl salinated deuterium oxide (D2O, Sigma-Aldrich, St. Louis, MO) was administered to all animals via intraperitoneal (IP) injection at dose volume of 20 ml/kg at 1 hr post lights on. Animals were then placed in clean cages and food was removed. After a 5 hour fast, blood glucose was measured and animals were dosed with 50 mg/kg [U-13C] glucose (Sigma-Aldrich, St. Louis, MO) IP at 5 ml/kg. Blood was collected via tail snip at time points from 60–150 min post treatment to measure blood glucose (via glucometer) as well as endogenous (12C-glucose) and exogenous (13C-glucose) via GCMS. Following the last tail blood collection, rats were anesthetized with isoflurane and cardiac blood was collected into K2EDTA tubes (Becton, Dickinson and Co., Franklin Lakes, NJ).
# The serially collected blood samples were analyzed for 13C-glucose enrichment using GC-MS analysis. The % 13C glucose enrichments were then combined with the total glucose readings to calculate the concentration of 13C-glucose, and these values were modeled with a two-compartment model of whole body glucose metabolism to calculate the average EGP for the period from 0–150 minutes.
# Terminal blood samples were analyzed for relative 2H enrichment in plasma glucose using the monoacetone glucose method. Briefly, samples were extracted with 70% perchloric acid at a ratio of 50 μl perchloric acid per 1 ml plasma and centrifuged at 25,000 rcf for 10 min at 4°C. The supernatant was collected and the pH was adjusted to 6–8 using aqueous KOH. The samples were then lyophilized overnight. To convert plasma glucose to monoacetone glucose (MAG), acetone and concentrated sulfuric acid were added to the lyophilized samples and stirred for 4 hours at room temperature. Water was then added and the pH adjusted to 2.0 with 3M Na2CO3. Samples were stirred moderately for 18 hours at room temperature, the pH was adjusted to 7 with 3M Na2CO3, and the samples were completely dried by speed vacuum concentration. The resulting MAG samples were then extracted in hot ethyl acetate, dried overnight under a stream of N2 gas, and purified using Discovery DSC-18 SPE columns (6 ml, 1 g bed weight). For the SPE protocol, MAG samples were reconstituted in 3 ml water and passed over the columns which were pre-washed with 2 ml methanol. The columns were rinsed twice with 1 ml water and the MAG was eluted with 5% acetonitrile. The acetonitrile eluent was then transferred to a glass scintillation vial and freeze dried. Purified MAG samples were solubilized in 180 μl 90% acetonitrile for 2H NMR analysis which was performed using the lock channel of a 950 MHz Bruker NMR spectrometer (David H Murdock Research Institute, DHMRI Kannapolis, NC). Acquisition parameters were as follows: 90° pulse, D1 = 1 s, 1H broadband decoupling, NS = 3600, acquisition time ~ 1 hr. The 2H NMR spectra of the MAG samples were then analyzed using Matlab (The Mathworks Inc, Natick, MA) to model the NMR peaks with a Lorentzian lineshape, and the results were used to calculate integrals for each of the seven NMR resonances in the MAG spectrum. Peaks 2, 5, and 6s were then used to calculate the relative sources of EGP (i.e. gluconeogenesis from TCA cycle substrates, glucose production from triose phosphates, and glycogenolysis) and these values were combined with the total EGP measurement to calculate absolute fluxes of glucose production.
Compound,"Glucose Over time (S2 File, Fig 2A) (GK rats [1]; Day 0, individual animals)","Glucose Over time (S2 File, Fig 2A) (GK rats [1]; Day 10, individual animals)","Glucose Over time (S2 File, Fig 2A) (GK rats [1]; Day 17, individual animals)","Glucose Over time (S2 File, Fig 2A) (GK rats [1]; Day 23, individual animals)","Glucose Over time (S2 File, Fig 2A) (GK rats [1]; Day 28, individual animals)",Fasted glucose on day 28 (Fig 3B) (GK rats [1]),"Glucose production, EGP Total (GK rats [2])","Glucose production, Glycerol (GK rats [2])","Glucose production, Glycogen (GK rats [2])","Glucose production, TCA (GK rats [2])"
COc1ccc(F)c(-c2ccc([C@@H]3CCc4ccc([C@H](C5CC5)[C@H](C)C(=O)O)cc4O3)cc2)c1 [L-254],162 mg/dL and 163 mg/dL and 174 mg/dL and 167 mg/dL and 198 mg/dL and 181 mg/dL and 193 mg/dL and 168 mg/dL and 160 mg/dL and 171 mg/dL,111 mg/dl and 110 mg/dl (2×) and 123 mg/dl and 100 mg/dl and 101 mg/dl and 106 mg/dl and 92 mg/dl and 99 mg/dl and 95 mg/dl,110 mg/dl and 118 mg/dl and 103 mg/dl (2×) and 138 mg/dl and 137 mg/dl and 96 mg/dl and 95 mg/dl and 124 mg/dl and 108 mg/dl,115 mg/dl and 109 mg/dl and 125 mg/dl and 106 mg/dl and 126 mg/dl (2×) and 127 mg/dl and 107 mg/dl and 117 mg/dl and 130 mg/dl,114 mg/dl and 98 mg/dl and 108 mg/dl and 105 mg/dl and 131 mg/dl and 113 mg/dl (2×) and 126 mg/dl and 121 mg/dl and 107 mg/dl,104 and 87 and 118 and 99 and 111 and 114 and 95 and 92,61.3579 µmol/kg/min and 60.2311 µmol/kg/min and 73.9647 µmol/kg/min and 47.8618 µmol/kg/min and 64.0721 µmol/kg/min and 48.3077 µmol/kg/min and 46.8784 µmol/kg/min and 45.4367 µmol/kg/min and 55.8377 µmol/kg/min,10.657 µmol/kg/min and 6.4047 µmol/kg/min and 5.755 µmol/kg/min and 5.519 µmol/kg/min and 3.299 µmol/kg/min and 5.985 µmol/kg/min and 2.316 µmol/kg/min,22.6257 µmol/kg/min and 22.3444 µmol/kg/min and 14.5988 µmol/kg/min and 19.8177 µmol/kg/min and 18.6577 µmol/kg/min and 12.2721 µmol/kg/min and 17.7499 µmol/kg/min,26.9483 µmol/kg/min and 45.2155 µmol/kg/min and 27.5078 µmol/kg/min and 38.7357 µmol/kg/min and 26.3505 µmol/kg/min and 28.6217 µmol/kg/min and 25.3709 µmol/kg/min
C[C@H](C(=O)O)[C@H](c1ccc2c(c1)O[C@H](C1CN(Cc3cc(C(F)(F)F)ccc3C(F)(F)F)C1)CC2)C1CC1 [L-846],162 mg/dL and 164 mg/dL and 165 mg/dL and 161 mg/dL and 182 mg/dL and 169 mg/dL and 204 mg/dL and 174 mg/dL and 186 mg/dL and 171 mg/dL,98 mg/dl and 122 mg/dl and 115 mg/dl and 114 mg/dl and 99 mg/dl (2×) and 103 mg/dl and 104 mg/dl and 100 mg/dl and 85 mg/dl,78 mg/dl and 96 mg/dl and 115 mg/dl and 110 mg/dl (2×) and 103 mg/dl and 108 mg/dl and 107 mg/dl and 101 mg/dl and 109 mg/dl,101 mg/dL and 120 mg/dL and 118 mg/dL and 110 mg/dL and 107 mg/dL and 103 mg/dL and 114 mg/dL and 129 mg/dL and 102 mg/dL and 106 mg/dL,112 mg/dl and 106 mg/dl and 113 mg/dl (3×) and 116 mg/dl and 101 mg/dl and 141 mg/dl and 132 mg/dl and 119 mg/dl,104 and 110 and 84 and 100 and 96 and 87 and 101 and 99 and 103,61.0286 µmol/kg/min and 62.3968 µmol/kg/min and 60.5987 µmol/kg/min and 63.0498 µmol/kg/min and 58.2916 µmol/kg/min and 53.1262 µmol/kg/min and 50.1943 µmol/kg/min and 59.3349 µmol/kg/min,5.2866 µmol/kg/min and 7.6637 µmol/kg/min and 4.613 µmol/kg/min and 10.7135 µmol/kg/min and 9.19 µmol/kg/min and 7.224 µmol/kg/min and 6.179 µmol/kg/min and 7.862 µmol/kg/min,22.4627 µmol/kg/min and 29.4039 µmol/kg/min and 20.4093 µmol/kg/min and 17.187 µmol/kg/min and 19.1242 µmol/kg/min and 17.4656 µmol/kg/min and 16.9199 µmol/kg/min and 18.0022 µmol/kg/min,33.2793 µmol/kg/min and 25.3292 µmol/kg/min and 35.5765 µmol/kg/min and 35.1493 µmol/kg/min and 29.9769 µmol/kg/min and 28.4363 µmol/kg/min and 27.0955 µmol/kg/min and 33.4708 µmol/kg/min
